Results published in US10167311B2, “Boronic acid esters and pharmaceutical formulations thereof” (OHIO STATE INNOVATION FOUNDATION, priority 2014, dated 2019).
Where two headings read alike, the source gives them in different places.

What was measured:
[1] = Encapsulation (drug entrapment / loading) efficiency of liposomes, Sepharose CL-4B fractions, UV-vis OD 270 nm; assay type: physicochemical; conditions: liposomal formulation; drug in liposome fractions / total drug fractions
Experimental: The liposome particle size distribution is determined through dynamic light scattering on a NICOMP Submicron Particle Sizer Model 370. The encapsulation efficiency was examined by a UV-visible spectrophotometer as the OD at 270 nm after 1:9 methanol extraction of fractions from the Sepharose CL-4B column (FIG. 1). A reference measurement was also taken of the OD at 450 nm without methanol extraction (FIG. 1). Then, the ratio of total amount of drug content in the liposome fractions to total drug fractions was calculated. In this example, a drug entrapment of 41% was obtained. The liposome particle size distribution was determined through dynamic light scattering on a NICOMP Submicron Particle Sizer Model 370. The encapsulation efficiency was examined by a UV-visible spectrophotometer as the OD at 270 nm after 1:9 methanol dissolution of fractions collected from the Sepharose column. A reference measurement was also taken of the OD at 450 nm without methanol dissolution. Then, the ratio of total amount of drug content in the liposome fractions to total drug fractions was calculated. […] The liposome particle size distribution was determined through dynamic light scattering on a NICOMP Submicron Particle Sizer Model 370. […] Then, the ratio of total amount of drug content in the liposome fractions to total drug fractions was calculated. […] Each fraction was analyzed by UV-vis spectrophotometry. […]

MV4-11 AML cells = test: Survival of MV4-11 engrafted NSG mice; assay type: in vivo; conditions: liposomal formulation, 1 mg/kg twice a week
Experimental: The therapeutic activity of BTZ-MEGA-CHOL was also investigated using animal studies. NSG mice were injected with 5×10^5 MV4-11 AML cells. The mice were divided into two groups of 10 each (Trial I), and were treated with empty liposomes or the liposomal formulation of BTZ-MEGA-CHOL at 1 mg/kg, twice a week, by tail vein injection. The study was repeated once with 5 mice in each group (Trial II). Three mice from each group were sacrificed after 4 weeks of treatment in Trial I for further analysis.
For Trial I, the p value was 0.0007 (FIG. 9). For Trial II the p value was 0.0019 (FIG. 10). When the data set was viewed as a combination, the p value was <0.0001 and median survival of the mice was 28 days for the empty liposome treated (control) group and 39 days for the BTZ-MEGA-CHOL treated group (FIG. 11).

[2] = Pharmacokinetics in plasma after i.v. administration (boron by ICP-OES); assay type: in vivo; conditions: ICR mice, i.v. 1.0 mg/kg, two-compartment model, mean ± SD (n = 3)
Experimental: The Pharmacokinetics of L-BTZ was studied in ICR mice (Charles River Lab, Wilmington, Mass.). The PK profile of free BTZ was also determined. Mice were given intravenous injections of free BTZ or L-BTZ at 1.0 mg/kg body weight via tail vein. At selected time intervals, a minimum of 100 μL […] was collected from each mouse using heparin-containing tubes. Plasma was then isolated by centrifugation at 3000× g for 5 min. The drug concentration in plasma was determined by measuring Boron concentration through an inductively coupled plasma-optical emission spectrometer (ICP-OES). The Boron extraction and sample preparation has been described previously. The pharmacokinetic parameters of free BTZ and L-BTZ were calculated using WinNonlin software and a two-compartment model and are shown in Table 1.

[3] = cited from earlier work

SMILES | drug entrapment (encapsulation efficiency) [1] | median survival (MV4-11 AML cells; tail vein, Trial I and II combined, p <0.0001 vs empty liposomes (28 days)) | survival of mice (MV4-11 AML cells; Trial I p 0.0007, Trial II p 0.0019) | T1/2α [2] | T1/2β [2] | AUC ([2]; mouse, iv) | clearance ([2]; mouse, iv) | maximum tolerated dose ([3]; intravenous bolus on days 1, 4, 8, and 11 of a 3-week cycle) | maximum tolerated dose ([3]; patients with solid tumors, intravenously once or twice weekly)
CC(C)CCC[C@@H](C)C1CCC2C3CC=C4C[C@@H](OC(=O)N(C)CC(O)[C@H]5OB([C@H](CC(C)C)NC(=O)[C@H](Cc6ccccc6)NC(=O)c6cnccn6)O[C@@H]5C(O)CO)CC[C@]4(C)C3CC[C@@]21C (stereo partly drawn) [BTZ-MEGA-CHOL] | 80.11% | 39 days | significant increase in survival | – | – | – | – | – | –
CC(C)C[C@H](NC(=O)[C@H](Cc1ccccc1)NC(=O)c1cnccn1)B(O)O [Free BTZ, Bortezomib] | – | – | – | 6 ± 1.2 min | 18.26 ± 13.33 h | 2870 ± 1340 ng·h/mL | 5.8 mL/min/kg | 1.56 mg/m^2 | 1.3 mg/m^2
